The record followed here is US12398125B2, “Nitrogen-containing saturated heterocyclyl derivative” (Sumitomo Pharma Co., Ltd., priority 2022, dated 2025).

Holding throughout (type): cell-based
Test [1] relates to α-synuclein aggregate in neurospheroid prepared from human iPS cells with a mutation in PLA2G6 gene. The experiment in a line: Test 2: suppressing the accumulation of α-synuclein aggregate with neurospheroid. The settings on record: 120 h, DMSO = 100%, compound added day 4, measured day 9 after induction of differentiation; for activity at 0.1 µM: 100 nM, read-out: Amount of aggregate (%) 100 nM; for activity at 1 µM: 1000 nM, read-out: Amount of aggregate (%) 1000 nM. The protocol:
Test 2: Evaluation of Suppressing the Accumulation of α-Synuclein Aggregate with Neurospheroid Prepared from Human iPS Cells with a Mutation in PLA2G6 Gene
(§1) (1) Induction of Differentiation from Human iPS Cell to Neural Cell
Neural stem cells were induced from PLA2G6 gene mutant iPS cells with PSC Neuronal Induction Medium (Thermo Fisher Scientific Inc., cat #A1647801). Neurospheroid was prepared from the induced neural stem cells by three-dimensional culture system, and preserved with BrainPhys Neuronal Medium (STEMCELL Technologies, cat #ST-05793) comprising NeuroCult SM1 Neuronal Supplement, N2 Supplement-A, 20 ng/mL BDNF, 20 ng/mL GDNF, 1 mM dibutyryl cAMP, and 200 nM ascorbic acid. Half of the culture medium was replaced on day 2 and day 4 after the induction of differentiation.
The test compound was diluted with the culture medium so as to be twice the final concentration, and an equal volume of the twice-concentrated solution was added to each well when half of the culture medium was replaced on day 4 after induction of differentiation.
(§2) (2) Evaluation of the Amount of α-Synuclein Aggregate
From the neurospheroid 9 days after the induction of differentiation, proteins were extracted with a TBS solution containing 1% TritionX-100, and the extracted proteins were subjected to a protein analysis with Simple Western system (Protein Simple, Inc., cat #SM-W008) using an α-synuclein antibody (Thermo Fisher Scientific Inc., cat #AHB0261) to measure the amount of the α-synuclein aggregate.
Assuming that the amount of the aggregate in the neurospheroid added with a DMSO solution is 100%, the amount of the aggregate in the neurospheroid added with each test compound was evaluated.

Test [2] has the same test system. Description: Test 3: reducing the accumulation of α-synuclein aggregate with neurospheroid. The following applies: 120 h, DMSO = 100%, compound added day 10, measured day 15 after induction of differentiation; for activity at 0.1 µM: 100 nM, read-out: Amount of aggregate (%) 100 nM; for activity at 1 µM: 1000 nM, read-out: Amount of aggregate (%) 1000 nM. The protocol:
Test 3: Evaluation of Reducing the Accumulation of α-Synuclein Aggregate with Neurospheroid Prepared from Human iPS Cells with a Mutation in PLA2G6 Gene (1) Induction of Differentiation from Human iPS Cell to Neural Cell
(§3) Neural stem cells were induced from PLA2G6 gene mutant iPS cells with PSC Neuronal Induction Medium (Thermo Fisher Scientific Inc., cat #A1647801). Neurospheroid was prepared from the induced neural stem cells by three-dimensional culture system, and preserved with BrainPhys Neuronal Medium (STEMCELL Technologies, cat #ST-05793) comprising NeuroCult SM1 Neuronal Supplement, N2 Supplement-A, 20 ng/mL BDNF, 20 ng/mL GDNF, 1 mM dibutyryl cAMP, and 200 nM ascorbic acid. Half of the culture medium was replaced every 3 or 4 days after the induction of differentiation.
The test compound was diluted with the culture medium so as to be twice the final concentration, and an equal volume of the twice-concentrated solution was added to each well when half of the culture medium was replaced on day 10 after induction of differentiation.
as §2
From the neurospheroid 15 days after the induction of differentiation, proteins were extracted with a TBS solution containing 1% TritionX-100, and the extracted proteins were subjected to a protein analysis with Simple Western system (Protein Simple, Inc., cat #SM-W008) using an α-synuclein antibody (Thermo Fisher Scientific Inc., cat #AHB0261) to measure the amount of the α-synuclein aggregate.
(§4) The amount of the aggregate in the neurospheroid added with each test compound was measured. Assuming that the amount of the aggregate in the neurospheroid added with a DMSO solution is 100%, the amount of the aggregate in the test samples was evaluated.

For test [3], the system named is α-synuclein aggregate in dopamine neurospheroid prepared from human iPS cells with a mutation in PLA2G6 gene. The experiment in a line: Test 5: suppressing the accumulation of α-synuclein aggregate with dopamine neurospheroid. The settings on record: 120 h, DMSO = 100%, compound added day 21, measured day 26, PLA2G6 mutant; for activity at 0.1 µM: 100 nM, read-out: Amount of aggregate (%) 100 nM; for activity at 1 µM: 1000 nM, read-out: Amount of aggregate (%) 1000 nM. Here is the method: Test 5: Evaluation of Suppressing the Accumulation of α-Synuclein Aggregate with Dopamine Neurospheroid Prepared from Human iPS Cells with a Mutation in PLA2G6 Gene
as §1
as §3, with “Dopaminergic progenitor” for “Neural stem”, “dopaminergic neuron differentiation kit” for “PSC Neuronal Induction Medium”, “#A3147701). Dopamine neurospheroid” for “#A1647801). Neurospheroid”, “dopaminergic progenitor” for “neural stem”
The test compound was diluted with the culture medium so as to be twice the final concentration, and an equal volume of the twice-concentrated solution was added to each well when half of the culture medium was replaced on day 21 after induction of differentiation.
as §2
From the dopamine neurospheroid 26 days after the induction of differentiation, proteins were extracted with a TBS solution containing 1% TritionX-100, and the extracted proteins were subjected to a protein analysis with Simple Western system (Protein Simple, Inc., cat #SM-W008) using an α-synuclein antibody (Thermo Fisher Scientific Inc., cat #AHB0261) to measure the amount of the α-synuclein aggregate.
as §4

In test [4] the test system is α-synuclein aggregate in dopamine neurospheroid prepared from human iPS cells with a mutation in GBA1 gene. The experiment in a line: Test 11: reducing the accumulation of α-synuclein aggregate with dopamine neurospheroid. The following applies: DMSO = 100%, compound added day 40, measured day 44, GBA1 mutant. Here is the method:
Test 11: Evaluation of Reducing the Accumulation of α-Synuclein Aggregate with Dopamine Neurospheroid Prepared from Human iPS Cells with a Mutation in GBA1 Gene
as §1
Dopaminergic progenitor cells were induced from GBA1 gene mutant iPS cells with dopaminergic neuron differentiation kit (Thermo Fisher Scientific Inc., cat #A3147701). Dopamine neurospheroid was prepared from the induced dopaminergic progenitor cells by three-dimensional culture system, and preserved with BrainPhys Neuronal Medium (STEMCELL Technologies, cat #ST-05793) comprising NeuroCult SM1 Neuronal Supplement, N2 Supplement-A, 20 ng/mL BDNF, 20 ng/mL GDNF, 1 mM dibutyryl cAMP, and 200 nM ascorbic acid. Half of the culture medium was replaced every 3 or 4 days.
The test compound was diluted with the culture medium so as to be twice the final concentration, and an equal volume of the twice-concentrated solution was added to each well when half of the culture medium was replaced on day 40 after induction of differentiation.
as §2
From the dopamine neurospheroid 44 days after the induction of differentiation, proteins were extracted with a TBS solution containing 1% TritionX-100, and the extracted proteins were subjected to a protein analysis with Simple Western system (Protein Simple, Inc., cat #SM-W008) using an α-synuclein antibody (Thermo Fisher Scientific Inc., cat #AHB0261) to measure the amount of the α-synuclein aggregate.
as §4

As to `CC1(C(=O)N2CCC(c3cncc(C(F)(F)F)c3)CC2)COC1` [Example 2, (3-methyloxetan-3-yl){4-[5-(trifluoromethyl)pyridin-3-yl]piperidin-1-yl}methanone], in test [1], the activity at 0.1 µM came to 9% and the activity at 1 µM came out at 1%. In addition, in test [2], the activity at 0.1 µM came out at 20% and the activity at 1 µM was found to be 17%. In test [3], the activity at 0.1 µM is 16% and the activity at 1 µM was determined as 7%. Moreover, in test [4], the “Amount of aggregate (%) 100 nM” value was determined as 21% and the “Amount of aggregate (%) 1000 nM” value was 20%.
For the compound `CN1CC(C)(C(=O)N2CCC(c3cccnc3C(F)(F)F)CC2)C1` [Example 42, (1,3-dimethylazetidin-3-yl){4-[2-(trifluoromethyl)pyridin-3-yl]piperidin-1-yl}methanone], the activity at 0.1 µM in test [1] stood at 27%; in test [2] it was 28%; in test [3], 17%. The results for the activity at 1 µM in test [1], in test [2] and in test [3] were 9%, 45% and 11%, respectively. Also, in test [4], the “Amount of aggregate (%) 100 nM” value turned out to be 18%. The “Amount of aggregate (%) 1000 nM” value in test [4] is recorded as 8%.
In the case of `CN1CC(C)(C(=O)N2CCC(c3cncc(C(F)(F)F)c3)CC2)C1` [Example 44, (1,3-dimethylazetidin-3-yl){4-[5-(trifluoromethyl)pyridin-3-yl]piperidin-1-yl}methanone], in test [1], the activity at 0.1 µM turned out to be 20% and the activity at 1 µM was determined as 0%. Besides, in test [2], the activity at 0.1 µM was 15% and the activity at 1 µM turned out to be 16%. Also, in test [3], the activity at 0.1 µM came out at 18% and the activity at 1 µM is 26%. Also, in test [4], the “Amount of aggregate (%) 100 nM” value amounted to 20% and the “Amount of aggregate (%) 1000 nM” value came to 24%.
